Experiment: Paper example: vitamin D3 supplementation with daily light and fixed orthodontic appliance
Format: in vivo, human
Conditions: passive phase; continued vitamin D3 2000 to 12,000 IU orally per day
Experimental: In one example, an adult patient's Vitamin D3 blood-serum level is measured during their routine orthodontic-examination and -records appointment. Laboratory results can indicate that the patient's vitamin D3 serum levels are at 20 ng/ml, which is considered to be deficient and abnormal. In this example, the patient's orthodontic diagnosis is Class I mild crowding with 4 mm of crowding on the upper arch and 4 mm on the lower arch. An orthodontic treatment plan can be formulated to comprise the installation of a fixed orthodontic appliance with some mild expansion of the upper and lower arches.
In this example, the patient self-administers oral oil-based vitamin D3 capsules at an amount of 6000 IU per day for 3 months to increase and normalize their vitamin D3 serum levels. Laboratory serum testing can optionally be performed again after 3 months of vitamin D3 supplementation. The patient can maintains or adjusts their oral dose of vitamin D3 based on their subsequent lab results. It should be understood that there are a number of alternative oral and/or systemic dosing protocols for vitamin D administration that could be followed to achieve similar results. The dosing protocol outlined above is merely one of many approaches.
In this example, orthodontic treatment can start either after the 3 month period or no more than about three months prior. […]

## C=C1CC[C@H](O)C/C1=C/C=C1\CCC[C@]2(C)[C@@H]([C@H](C)CCCC(C)C)CC[C@@H]12 [vitamin D3]
  alveolar bone density around the teeth: increased
